Assay results published in patent publication US7649091B2, “Orally bioavailable low molecular weight metalloporphyrins as antioxidants” (Eukarion, Inc., priority 2003, dated 2010).
Where “and” joins values, the source holds several entries; their conditions need not be identical. Equal values may be shown once.

Key:
Type in all cases: in vivo, Balb/c male mice
[1] = Animal bioavailability of Compound 3, i.v. experiment: plasma and organ levels by LC/MS; conditions: IV, 238 min
Description: (§1) Twenty 8-week-old Balb/c male mice (Charles River, US) were used in all experiments. Mice were kept at a temperature of 22±3° C. and provided with a standard diet and water.
(§2) For i.v. experiment mice received standard food before and during the experiment. For oral route, mice received no food 3 h before the start of the experiment and no food after.
0.1 mL of a solution of Compound 3, 3 mg/mL in mannitol 5% (previously sterilized by filtration onto Acrodisc® syringe filter 0.2 μm HT Tuffryn® membrane) was injected in the tail vein. Two animals were killed 0.5 h after injection, two animals were killed 1 h after injection, two animals were killed 2 h after injection and two animals were killed 4 h after injection.
(§3) At the time of sacrifice, mice were bled by heart puncture. Then organs were removed for biochemical studies (brain, kidney, liver and lung).
Red blood cells and plasma were separated by addition of heparine (15 μL) and centrifugation (2000 rpm, 5 min). […] The liquid layer (50 μL) was then analysed by LC/MS (MRM procedure, Column PARTISIL 5 ODS-3 RAC II, Cat. no. 4222-225).
Organs were washed with 5 ml of distillated water and dried with blotting paper. Volumes of organs were measured by addition of the organ into one half full of water graduated test tube. […]

[2] = Animal bioavailability of Compound 3, oral route experiment (gavage): plasma and organ levels by LC/MS; conditions: for Brain: Oral
Description: as §1, §2
Animals received by gavage a 0.1 mL of a solution of Compound 3 3 mg/mL in mannitol 5% (previously sterilized by filtration onto Acrodisc® syringe filter […] HT Tuffryn® membrane). Two animals were killed 0.5 h after gavage, two animals were killed 1 h after gavage, two animals were killed 2 h after gavage and two animals were killed 4 h after gavage.
as §3
Red blood cells and plasma were separated by addition of heparine (15 μL) and centrifugation (2000 rpm, 5 min). Then 1.5 mL of HPLC mobil phase (Ammonium acetate 3 mM, acetonitrile, methanol, formic acid; 1/1/1/0.07 (v/v) at pH=3) were added to 40 μL of plasma and the mixture was centrifugated (2000 rpm, 5 min). The liquid layer (50 μL) was then analysed by LC/MS (MRM procedure, Column PARTISIL 5 ODS-3 RAC II, Cat. no. 4222-225).
Organs were washed with 5 ml of distillated water and dried with blotting paper. Volumes of organs were measured by addition of the organ into one half full of water graduated test tube. Organs were dried a second time with blotting paper and then weighed. A volume of mobil phase (in mL) corresponding to 6 times of the organ weigh (in g) was added to the organ. The mixture was crushed mechanically (with JANKE & KUNKEL, IKA Labortechnik ULTRA-TURRAX T25; 24000 rpm, 1 min), sonicated 30 min and centrifugated 20 min (2000 rpm). To this mixture, 1 mL of the liquid layer was removed and filtrated with Acrodisc CRPTFE® syringe Filter in order to obtain a clear solution suitable for LC/MS analysis.

[3] = Animal bioavailability of Compound 3, i.v. experiment: plasma and organ levels by LC/MS; conditions: IV, 82 min
[4] = 0.1 mL of 3 mg/mL in mannitol 5%, individual mouse
[5] = third line = mean of the two mice

Substance: {[{(Porphine-5,15-diyl)bis[cyclopropyl-diyl]}](2-)-N^21,N^22,N^23,N^24}manganese(III)acetate [Compound 3]
- Brain [1, 4]: 89 ng/g and 91 ng/g
- Brain [1, 5]: 90 ng/g
- Brain, oral level as percent of IV level ([2]; Oral 70 min mean relative to IV 82 min mean (in parentheses)): (112%)
- Brain, oral level as percent of IV level ([2]; Oral 234 min mean relative to IV 238 min mean (in parentheses)): (10%)
- Brain ([2]; 70 min, 0.1 mL of 3 mg/mL in mannitol 5% by gavage, individual mouse): 88 ng/g and 24 ng/g
- Brain ([2]; 70 min, third line = mean of the two mice): 56 ng/g
- Brain ([2]; 234 min, 0.1 mL of 3 mg/mL in mannitol 5% by gavage, individual mouse): 8 ng/g and 9 ng/g
- Brain ([2]; 234 min, third line = mean of the two mice): 9 ng/g
- Lung ([2]; mouse, in vivo, po): 67 ng/g
- Brain [3, 4]: 25 ng/g and 75 ng/g
- Brain [3, 5]: 50 ng/g
